According to US9889115B2, “Fitness assay and associated methods” (priority 1998, dated 2018):

Tests used:
HIV-1BAL = assay: PHA-PBMC assay, p24 Gag protein production; type: cell-based
[1] = test system: multidrug-resistant HIV-1 clinical isolate, patient 22; assay: IC50 against multidrug-resistant clinical isolates (Table 9a); type: cell-based; details: Human immunodeficiency virus 1
Method: (§1) The mutant multidrug-resistant HIV-1 strains corresponding to each patient, numbered 9-35, were genetically analyzed in terms of the nucleic acid sequences of the protease (PR) and a portion of the reverse transcriptase (RT) genes from which mutations in these enzymes were determined. The mutations in the protease and reverse transcriptase of the multidrug-resistant viruses isolated from each patient are shown below in Table 9b.

[2] = test system: multidrug-resistant HIV-1 clinical isolate, patient 34; assay: as above; type: cell-based; details: Human immunodeficiency virus 1
Method: as §1

HIV-1LAI [3] = assay: PHA-PBMC assay, p24 Gag protein production; type: cell-based; details: HIV-1LAI
wild-type HIV-1 (WT) = assay: IC50 against wild-type HIV-1 (Table 9a); type: cell-based; details: Human immunodeficiency virus 1; (WT)
[4] = test system: multidrug-resistant HIV-1 clinical isolate, patient 8; assay: PHA-PBMC assay, p24 Gag protein production; type: cell-based; details: Human immunodeficiency virus 1; Patient/Isolate code 8; PHA-PBMC, p24
Method: (§2) The patient profiles are shown below in Table 2.
(§3) To determine protease inhibitory activity against multidrug resistant HIV, the IC50's were measured against a panel of clinically isolated mutant HIV isolates.
(§4) All drug sensitivities were performed in triplicate. In order to determine whether the HIV isolates were syncitium inducing (SI) or non-syncitium inducing (NSI), an aliquot of viral stock supernatant, containing 100 TCID50, was cultured with 1×10^5 MT-2 cells in a 12-well plate. Cultures were maintained for four weeks and were examined for syncytium formation twice a week.

[5] = test system: multidrug-resistant HIV-1 clinical isolate, patient 4; assay: PHA-PBMC assay, p24 Gag protein production; type: cell-based; details: Human immunodeficiency virus 1; Patient/Isolate code 4; PHA-PBMC, p24
Method: as §2, §3, §4

[6] = test system: multidrug-resistant HIV-1 clinical isolate, patient 6; assay: PHA-PBMC assay, p24 Gag protein production; type: cell-based; details: Human immunodeficiency virus 1; Patient/Isolate code 6; PHA-PBMC, p24
Method: as §2, §3, §4

[7] = test system: multidrug-resistant HIV-1 clinical isolate, patient 3; assay: PHA-PBMC assay, p24 Gag protein production; type: cell-based; details: Human immunodeficiency virus 1; Patient/Isolate code 3; PHA-PBMC, p24
Method: as §2, §3, §4

[8] = test system: multidrug-resistant HIV-1 clinical isolate, patient 5; assay: PHA-PBMC assay, p24 Gag protein production; type: cell-based; details: Human immunodeficiency virus 1; Patient/Isolate code 5; PHA-PBMC, p24
Method: as §2, §3, §4

[9] = test system: multidrug-resistant HIV-1 clinical isolate, patient 7; assay: PHA-PBMC assay, p24 Gag protein production; type: cell-based; details: Human immunodeficiency virus 1; Patient/Isolate code 7; PHA-PBMC, p24
Method: as §2, §3, §4

[10] = test system: multidrug-resistant HIV-1 clinical isolate, patient 1; assay: PHA-PBMC assay, p24 Gag protein production; type: cell-based; details: Human immunodeficiency virus 1; Patient/Isolate code 1; PHA-PBMC, p24
Method: as §2, §3, §4

HIV-1ERS104pre = assay: PHA-PBMC assay, p24 Gag protein production; type: cell-based; details: Human immunodeficiency virus 1; HIV-1ERS104pre, SI; PHA-PBMC, p24
Method: as §2, §3, §4

[11] = test system: multidrug-resistant HIV-1 clinical isolate, patient 2; assay: PHA-PBMC assay, p24 Gag protein production; type: cell-based; details: Human immunodeficiency virus 1; Patient/Isolate code 2; PHA-PBMC, p24
Method: as §2, §3, §4

[12] = test system: multidrug-resistant HIV-1 clinical isolate, patient 23; assay: microbe, parasite or virus in culture; type: cell-based; details: Human immunodeficiency virus 1; Patient Isolate 23
Method: as §1

[13] = test system: multidrug-resistant HIV-1 clinical isolate, patient 31; assay: microbe, parasite or virus in culture; type: cell-based; details: Human immunodeficiency virus 1; Patient Isolate 31
Method: as §1

[14] = test system: multidrug-resistant HIV-1 clinical isolate, patient 9; assay: microbe, parasite or virus in culture; type: cell-based; details: Human immunodeficiency virus 1; Patient Isolate 9
Method: as §1

[15] = test system: multidrug-resistant HIV-1 clinical isolate, patient 19; assay: microbe, parasite or virus in culture; type: cell-based; details: Human immunodeficiency virus 1; Patient Isolate 19
Method: as §1

[16] = test system: multidrug-resistant HIV-1 clinical isolate, patient 30; assay: microbe, parasite or virus in culture; type: cell-based; details: Human immunodeficiency virus 1; Patient Isolate 30
Method: as §1

[17] = test system: multidrug-resistant HIV-1 clinical isolate, patient 11; assay: microbe, parasite or virus in culture; type: cell-based; details: Human immunodeficiency virus 1; Patient Isolate 11
Method: as §1

[18] = test system: multidrug-resistant HIV-1 clinical isolate, patient 29; assay: microbe, parasite or virus in culture; type: cell-based; details: Human immunodeficiency virus 1; Patient Isolate 29
Method: as §1

[19] = test system: multidrug-resistant HIV-1 clinical isolate, patient 10; assay: microbe, parasite or virus in culture; type: cell-based; details: Human immunodeficiency virus 1; Patient Isolate 10
Method: as §1

[20] = test system: multidrug-resistant HIV-1 clinical isolate, patient 33; assay: microbe, parasite or virus in culture; type: cell-based; details: Human immunodeficiency virus 1; Patient Isolate 33
Method: as §1

[21] = test system: multidrug-resistant HIV-1 clinical isolate, patient 17; assay: microbe, parasite or virus in culture; type: cell-based; details: Human immunodeficiency virus 1; Patient Isolate 17
Method: as §1

[22] = test system: multidrug-resistant HIV-1 clinical isolate, patient 28; assay: microbe, parasite or virus in culture; type: cell-based; details: Human immunodeficiency virus 1; Patient Isolate 28
Method: as §1

[23] = test system: multidrug-resistant HIV-1 clinical isolate, patient 32; assay: microbe, parasite or virus in culture; type: cell-based; details: Human immunodeficiency virus 1; Patient Isolate 32
Method: as §1

[24] = test system: multidrug-resistant HIV-1 clinical isolate, patient 14; assay: microbe, parasite or virus in culture; type: cell-based; details: Human immunodeficiency virus 1; Patient Isolate 14
Method: as §1

[25] = test system: multidrug-resistant HIV-1 clinical isolate, patient 16; assay: microbe, parasite or virus in culture; type: cell-based; details: Human immunodeficiency virus 1; Patient Isolate 16
Method: as §1

[26] = test system: multidrug-resistant HIV-1 clinical isolate, patient 20; assay: microbe, parasite or virus in culture; type: cell-based; details: Human immunodeficiency virus 1; Patient Isolate 20
Method: as §1

[27] = test system: multidrug-resistant HIV-1 clinical isolate, patient 13; assay: microbe, parasite or virus in culture; type: cell-based; details: Human immunodeficiency virus 1; Patient Isolate 13
Method: as §1

[28] = test system: multidrug-resistant HIV-1 clinical isolate, patient 35; assay: microbe, parasite or virus in culture; type: cell-based; details: Human immunodeficiency virus 1; Patient Isolate 35
Method: as §1

[29] = test system: multidrug-resistant HIV-1 clinical isolate, patient 18; assay: microbe, parasite or virus in culture; type: cell-based; details: Human immunodeficiency virus 1; Patient Isolate 18
Method: as §1

[30] = test system: multidrug-resistant HIV-1 clinical isolate, patient 15; assay: microbe, parasite or virus in culture; type: cell-based; details: Human immunodeficiency virus 1; Patient Isolate 15
Method: as §1

[31] = test system: multidrug-resistant HIV-1 clinical isolate, patient 27; assay: microbe, parasite or virus in culture; type: cell-based; details: Human immunodeficiency virus 1; Patient Isolate 27
Method: as §1

[32] = test system: multidrug-resistant HIV-1 clinical isolate, patient 21; assay: microbe, parasite or virus in culture; type: cell-based; details: Human immunodeficiency virus 1; Patient Isolate 21
Method: as §1

[33] = test system: multidrug-resistant HIV-1 clinical isolate, patient 12; assay: microbe, parasite or virus in culture; type: cell-based; details: Human immunodeficiency virus 1; Patient Isolate 12
Method: as §1

HIV-1LAI [34] = assay: MT-2 cells, MTT assay; type: cell-based; details: HIV-1LAI; MT-2/MTT, day 7
Method: All drug sensitivities were performed in triplicate. […] The IC50's were determined using the MTT assay on day 7 of culture. All sensitivities were determined in […].

HIV-1 protease G48V/V82A = target: T1, HIV-1 protease G48V/V82A (Human immunodeficiency virus type 1 group M subtype B, UniProt P04585, G536V/V570A); assay: continuous fluorogenic HIV protease assay; type: biochemical
T1 construct: proteases containing the deleterious drug resistance associated mutations V82F/I84V and G48V/V82A
Method: This example describes the protocol for the sensitive continuous fluorogenic assay for HIV protease of the present invention and its application. […] 21702-1201, upon written request. The inhibition constant for wild-type HIV-1, Kimnt/Kiwt ratio, and vitality were measured. (See Gulnik et al., Biochemistry, 34, 9282-9287 (1995). Protease activity was measured using the fluorgenic substrate Lys-Ala-Arg-Val-Tyr-Phe(NO2)-Glu-Ala-Nle-NH2 (Bachem Bioscience, Inc.). (See Peranteau et al., D.H. (1995) Anal. Biochem.).
The reaction was initiated by the addition of 5 μl of substrate stock solution in water. Increase in fluorescence intensity at the emission maximum of 306 nm (excitation wavelength was 277 nm) was monitored as a function of time using Aminco Bowman-2 luminescence spectrometer (SLM Instruments, Inc.). The initial rate of hydrolysis was calculated by second degree polynomial fit using SLM AB2 2.0 operating software.
For inhibition studies, inhibitors were prepared as stock solutions at different concentrations in dimethylsulfoxide. […] The reaction was initiated by the addition of 5 μl of substrate stock solution in water. For data analysis, the mathematical model for tight-binding inhibitors was used. (See Williams and Morrison (1979), In: Methods of Enzymol. 63, (ed. D. L. Purich), 437-467, Academic Press, NY, London). […]
This example describes the inhibitory activity of compounds 35 (FIG. 5A), 36 (FIG. 5B), 37 (FIG. 5C) and 38 (FIG. 5D). In accordance with the technique disclosed in Example 13 above, the inhibitory activity of these compounds was tested against proteases of the wild-type HIV-1. Compound 36, 37 and 38 were also tested against proteases containing the deleterious drug resistance associated mutations V82F/I84V and G48V/V82A. Fitness was determined in accordance with Example 13.

HIV-1 protease V82F/I84V [35] = assay: continuous fluorogenic HIV protease assay; type: biochemical
Method: (§5) This example describes the protocol for the sensitive continuous fluorogenic assay for HIV protease of the present invention and its application. […] The inhibition constant for wild-type HIV-1, Kimnt/Kiwt ratio, and vitality were measured.
(§6) The reaction was initiated by the addition of 5 μl of substrate stock solution in water. […] The initial rate of hydrolysis was calculated by second degree polynomial fit using SLM AB2 2.0 operating software.
(§7) For inhibition studies, inhibitors were prepared as stock solutions at different concentrations in dimethylsulfoxide. […] The reaction was initiated by the addition of 5 μl of substrate stock solution in water. For data analysis, the mathematical model for tight-binding inhibitors was used.

HIV-1 protease V82F/I84V [36] = target: T2, HIV-1 protease V82F/I84V (Human immunodeficiency virus type 1 group M subtype B, UniProt P04585, I572V/V570F); assay: continuous fluorogenic HIV protease assay; type: biochemical; details: V82F/I84V (Table 7)
T2 construct: the proteases of wild-type HIV-1 (WT) and various mutant enzymes
Method: as §5, §6, §7

[37] = target: T3, wild-type HIV-1 (WT) protease (Human immunodeficiency virus type 1 group M subtype B, UniProt P04585); assay: continuous fluorogenic HIV protease assay; type: biochemical; details: WT (Table 7)
T3 construct: the proteases of wild-type HIV-1 (WT)
Method: as §5, §6, §7

wild-type HIV = assay: wild-type antiretroviral activity (Table 4); details: Human immunodeficiency virus 1, read-out: ID50

CC(C)(C)NC(=O)[C@@H]1C[C@@H]2CCCC[C@@H]2CN1C[C@@H](O)[C@H](Cc1ccccc1)NC(=O)[C@H](CC(N)=O)NC(=O)c1ccc2ccccc2n1 [SAQ, Saquinavir]
IC50 (HIV-1BAL; Human immunodeficiency virus 1, HIV-1BAL, NSI, PHA-PBMC, p24 (Table 3)): 3.7 nM
IC50 [1]: 3 nM
IC50 [2]: 63 nM
IC50 (HIV-1LAI [3]; Human immunodeficiency virus 1, SI, PHA-PBMC, p24 (Table 3)): 5.4 nM
IC50 (wild-type HIV-1 (WT)): 7 nM
IC50 [4]: 9 nM
IC50 [5]: 33 nM
IC50 [6]: 190 nM
IC50 [7]: 36 nM
IC50 [8]: 240 nM
IC50 [9]: 120 nM
IC50 [10]: 290 nM
IC50 (HIV-1ERS104pre): 10 nM
IC50 [11]: 35 nM
IC50 [12]: 8 nM
IC50 [13]: 74 nM
IC50 [14]: > 312 nM
IC50 [15]: 55 nM
IC50 [16]: 191 nM
IC50 [17]: 1 nM
IC50 [18]: 50 nM
IC50 [19]: > 312 nM
IC50 [20]: 59 nM
IC50 [21]: 107 nM
IC50 [22]: > 312 nM
IC50 [23]: > 312 nM
IC50 [24]: 40 nM
IC50 [25]: > 312 nM
IC50 [26]: 32 nM
IC50 [27]: > 312 nM
IC50 [28]: 61.6 nM
IC50 [29]: 39 nM
IC50 [30]: > 312 nM
IC50 [31]: > 312 nM
IC50 [32]: 210 nM
IC50 [33]: > 312 nM

CC(C)CN(C[C@@H](O)[C@H](Cc1ccccc1)NC(=O)O[C@H]1CO[C@H]2OCC[C@H]21)S(=O)(=O)c1cccc(O)c1 [Compound 36]
IC50 (HIV-1BAL; HIV-1Ba-L, PBMC/p24, day 7 (Table 8)): 38 nM
IC50 (HIV-1LAI [3]; PBMC/p24, day 7 (Table 8)): 34 nM
IC50 (HIV-1LAI [34]): 17 nM
KI-wt/KI-mut (HIV-1 protease G48V/V82A; G48V/V82A): >3.0
Ki (HIV-1 protease G48V/V82A; G48V/V82A): 0.0153 nM
Fitness (HIV-1 protease G48V/V82A; G48V/V82A relative to WT): >0.8
KI-wt/KI-mut (HIV-1 protease V82F/I84V [35]; V82F/I84V (Table 7)): >4.9
Fitness (HIV-1 protease V82F/I84V [35]; V82F/I84V relative to WT (Table 7)): >0.8
Ki (HIV-1 protease V82F/I84V [36]): 0.0244 nM
Ki [37]: < 0.005 nM

COc1ccc(S(=O)(=O)N(CC(C)C)CC(O)C(Cc2ccccc2)NC(=O)OC2COC3OCCC23)cc1 (centres unmarked)
IC50 (wild-type HIV): 1.4 nM
